Data taken from the supplement of paper PMC10307832.

How the values were obtained:
Test in all cases: relative viability (nuclei count vs DMSO), 5 days (fraction); higher = more cells survive
NCI-H2228 = test system: NCI-H2228
Outline: (§1)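 One day after seeding in 1536-well plates, lung cancer cell lines were dosed by pin tool. Dosing was either single-drug or a fixed anchor-drug dose plus five library-drug doses (not always all listed) in √10 steps. After 5 days, nuclei were stained in one fix-and-stain step and counted on 4× images, and relative viability is the nuclei count of treated wells over that of vehicle wells, given as the median of duplicate plates.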

PC-3 [JPC-3] = test system: PC-3 [JPC-3]
Outline: as §1

A-427 = test system: A-427
Outline: as §1

LOU-NH91 = test system: LOU-NH91
Outline: as §1

HOP-62 = test system: HOP-62
Outline: as §1

NCI-H1734 = test system: NCI-H1734
Outline: as §1

SW 1573 = test system: SW 1573
Outline: as §1

NCI-H1915 = test system: NCI-H1915
Outline: as §1

NCI-H2347 = test system: NCI-H2347
Outline: as §1

HCC-78 = test system: HCC-78
Outline: as §1

NCI-H1755 = test system: NCI-H1755
Outline: as §1

LC-2-ad = test system: LC-2-ad
Outline: as §1

NCI-H1792 = test system: NCI-H1792
Outline: as §1

NCI-H1975 = test system: NCI-H1975
Outline: as §1

LXF-289 = test system: LXF-289
Outline: as §1

NCI-H2126 = test system: NCI-H2126
Outline: as §1

NCI-H358 = test system: NCI-H358
Outline: as §1

NCI-H460 = test system: NCI-H460
Outline: as §1

HCC-15 = test system: HCC-15
Outline: as §1

RERF-LC-KJ = test system: RERF-LC-KJ
Outline: as §1

NCI-H2342 = test system: NCI-H2342
Outline: as §1

NCI-H647 = test system: NCI-H647
Outline: as §1

SK-LU-1 = test system: SK-LU-1
Outline: as §1

## O=C(O)c1ccc(-c2c[nH]c3ncc(-c4ccccc4)cc23)cc1C1CCCC1 + O=C(c1cc(Cc2n[nH]c(=O)c3ccccc23)ccc1F)N1CCN(C(=O)C2CC2)CC1 [Olaparib] (partner 8 µM)
NCI-H2228; first compound 0.04 µM
  relative viability: 0.728
NCI-H2228; first compound 0.1265 µM
  relative viability: 0.645
NCI-H2228; first compound 0.4 µM
  relative viability: 0.626
NCI-H2228; first compound 1.265 µM
  relative viability: 0.309
PC-3 [JPC-3]; first compound 0.04 µM
  relative viability: 1.07
PC-3 [JPC-3]; first compound 0.1265 µM
  relative viability: 1.07
PC-3 [JPC-3]; first compound 0.4 µM
  relative viability: 1.15
PC-3 [JPC-3]; first compound 1.265 µM
  relative viability: 0.919
A-427; first compound 0.04 µM
  relative viability: 0.706
A-427; first compound 0.1265 µM
  relative viability: 0.845
A-427; first compound 0.4 µM
  relative viability: 0.644
A-427; first compound 1.265 µM
  relative viability: 0.573
LOU-NH91; first compound 0.04 µM
  relative viability: 0.893
LOU-NH91; first compound 0.1265 µM
  relative viability: 0.979
LOU-NH91; first compound 0.4 µM
  relative viability: 0.908
LOU-NH91; first compound 1.265 µM
  relative viability: 0.754
HOP-62; first compound 0.04 µM
  relative viability: 0.352
HOP-62; first compound 0.1265 µM
  relative viability: 0.448
HOP-62; first compound 0.4 µM
  relative viability: 0.356
HOP-62; first compound 1.265 µM
  relative viability: 0.382
NCI-H1734; first compound 0.04 µM
  relative viability: 0.562
NCI-H1734; first compound 0.1265 µM
  relative viability: 0.736
NCI-H1734; first compound 0.4 µM
  relative viability: 0.568
NCI-H1734; first compound 1.265 µM
  relative viability: 0.495
SW 1573; first compound 0.04 µM
  relative viability: 0.527
SW 1573; first compound 0.1265 µM
  relative viability: 0.528
SW 1573; first compound 0.4 µM
  relative viability: 0.427
SW 1573; first compound 1.265 µM
  relative viability: 0.341
NCI-H1915; first compound 0.04 µM
  relative viability: 0.266
NCI-H1915; first compound 0.1265 µM
  relative viability: 0.25
NCI-H1915; first compound 0.4 µM
  relative viability: 0.226
NCI-H1915; first compound 1.265 µM
  relative viability: 0.203
NCI-H2347; first compound 0.04 µM
  relative viability: 0.593
NCI-H2347; first compound 0.1265 µM
  relative viability: 0.608
NCI-H2347; first compound 0.4 µM
  relative viability: 0.54
NCI-H2347; first compound 1.265 µM
  relative viability: 0.51
HCC-78; first compound 0.1265 µM
  relative viability: 0.814
HCC-78; first compound 0.4 µM
  relative viability: 0.784
HCC-78; first compound 1.265 µM
  relative viability: 0.71
NCI-H1755; first compound 0.04 µM
  relative viability: 0.879
NCI-H1755; first compound 0.1265 µM
  relative viability: 0.943
NCI-H1755; first compound 0.4 µM
  relative viability: 0.885
NCI-H1755; first compound 1.265 µM
  relative viability: 0.86
LC-2-ad; first compound 0.04 µM
  relative viability: 0.651
LC-2-ad; first compound 0.1265 µM
  relative viability: 0.642
LC-2-ad; first compound 0.4 µM
  relative viability: 0.623
LC-2-ad; first compound 1.265 µM
  relative viability: 0.566
NCI-H1792; first compound 0.04 µM
  relative viability: 0.422
NCI-H1792; first compound 0.1265 µM
  relative viability: 0.655
NCI-H1792; first compound 0.4 µM
  relative viability: 0.446
NCI-H1792; first compound 1.265 µM
  relative viability: 0.405
NCI-H1975; first compound 0.04 µM
  relative viability: 0.724
NCI-H1975; first compound 0.1265 µM
  relative viability: 0.801
NCI-H1975; first compound 0.4 µM
  relative viability: 0.842
NCI-H1975; first compound 1.265 µM
  relative viability: 0.539
LXF-289; first compound 0.04 µM
  relative viability: 1.07
LXF-289; first compound 0.1265 µM
  relative viability: 0.935
LXF-289; first compound 0.4 µM
  relative viability: 0.709
LXF-289; first compound 1.265 µM
  relative viability: 0.507
NCI-H2126; first compound 0.04 µM
  relative viability: 0.884
NCI-H2126; first compound 0.1265 µM
  relative viability: 0.861
NCI-H2126; first compound 0.4 µM
  relative viability: 0.853
NCI-H2126; first compound 1.265 µM
  relative viability: 0.64
NCI-H358; first compound 0.04 µM
  relative viability: 0.603
NCI-H358; first compound 0.1265 µM
  relative viability: 0.657
NCI-H358; first compound 0.4 µM
  relative viability: 0.529
NCI-H358; first compound 1.265 µM
  relative viability: 0.275
NCI-H460; first compound 0.04 µM
  relative viability: 0.523
NCI-H460; first compound 0.1265 µM
  relative viability: 0.463
NCI-H460; first compound 0.4 µM
  relative viability: 0.456
NCI-H460; first compound 1.265 µM
  relative viability: 0.42
HCC-15; first compound 0.04 µM
  relative viability: 0.747
HCC-15; first compound 0.1265 µM
  relative viability: 0.671
HCC-15; first compound 0.4 µM
  relative viability: 0.56
HCC-15; first compound 1.265 µM
  relative viability: 0.377
RERF-LC-KJ; first compound 0.04 µM
  relative viability: 0.9
RERF-LC-KJ; first compound 0.1265 µM
  relative viability: 0.788
RERF-LC-KJ; first compound 0.4 µM
  relative viability: 0.786
RERF-LC-KJ; first compound 1.265 µM
  relative viability: 0.473
NCI-H2342; first compound 0.04 µM
  relative viability: 0.456
NCI-H2342; first compound 0.1265 µM
  relative viability: 0.445
NCI-H2342; first compound 0.4 µM
  relative viability: 0.501
NCI-H2342; first compound 1.265 µM
  relative viability: 0.446
NCI-H647; first compound 0.04 µM
  relative viability: 0.5
NCI-H647; first compound 0.1265 µM
  relative viability: 0.619
NCI-H647; first compound 0.4 µM
  relative viability: 0.494
NCI-H647; first compound 1.265 µM
  relative viability: 0.322
SK-LU-1; first compound 0.04 µM
  relative viability: 0.457
SK-LU-1; first compound 0.1265 µM
  relative viability: 0.459
SK-LU-1; first compound 0.4 µM
  relative viability: 0.512
SK-LU-1; first compound 1.265 µM
  relative viability: 0.318
